Source: US9006450B2 (Boehringer Ingelheim International GmbH, priority 2010, dated 2015)

target: T1, human ACC2 (Homo sapiens, UniProt O00763); test: ACC2 assay, spectrophotometric 384 well assay (NADH-linked, coupled lactate dehydrogenase/pyruvate kinase); type: biochemical; settings: ACC2 assay, hACC2 construct lacking 128 N-terminal amino acids, 25° C., 340 nm; read-out: IC50
T1 construct: made in house; host or cells: insect cells (baculoviral expression system)
Summary of the method: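 ADP output tracked via pyruvate kinase/lactate dehydrogenase NADH oxidation, slope at 340 nm over 15 min, 25° C, with 500 μM ATP and 200 μM each acetyl-CoA and NADH. Enzyme: insect-cell-expressed human ACC2, N-terminal 128 residues deleted; pH 7.5 Tris with citrate, KHCO3. IC50 from four-parameter regression versus vehicle and no-acetyl-CoA controls.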

T1 sequence (O00763 129-2458 limits assumed): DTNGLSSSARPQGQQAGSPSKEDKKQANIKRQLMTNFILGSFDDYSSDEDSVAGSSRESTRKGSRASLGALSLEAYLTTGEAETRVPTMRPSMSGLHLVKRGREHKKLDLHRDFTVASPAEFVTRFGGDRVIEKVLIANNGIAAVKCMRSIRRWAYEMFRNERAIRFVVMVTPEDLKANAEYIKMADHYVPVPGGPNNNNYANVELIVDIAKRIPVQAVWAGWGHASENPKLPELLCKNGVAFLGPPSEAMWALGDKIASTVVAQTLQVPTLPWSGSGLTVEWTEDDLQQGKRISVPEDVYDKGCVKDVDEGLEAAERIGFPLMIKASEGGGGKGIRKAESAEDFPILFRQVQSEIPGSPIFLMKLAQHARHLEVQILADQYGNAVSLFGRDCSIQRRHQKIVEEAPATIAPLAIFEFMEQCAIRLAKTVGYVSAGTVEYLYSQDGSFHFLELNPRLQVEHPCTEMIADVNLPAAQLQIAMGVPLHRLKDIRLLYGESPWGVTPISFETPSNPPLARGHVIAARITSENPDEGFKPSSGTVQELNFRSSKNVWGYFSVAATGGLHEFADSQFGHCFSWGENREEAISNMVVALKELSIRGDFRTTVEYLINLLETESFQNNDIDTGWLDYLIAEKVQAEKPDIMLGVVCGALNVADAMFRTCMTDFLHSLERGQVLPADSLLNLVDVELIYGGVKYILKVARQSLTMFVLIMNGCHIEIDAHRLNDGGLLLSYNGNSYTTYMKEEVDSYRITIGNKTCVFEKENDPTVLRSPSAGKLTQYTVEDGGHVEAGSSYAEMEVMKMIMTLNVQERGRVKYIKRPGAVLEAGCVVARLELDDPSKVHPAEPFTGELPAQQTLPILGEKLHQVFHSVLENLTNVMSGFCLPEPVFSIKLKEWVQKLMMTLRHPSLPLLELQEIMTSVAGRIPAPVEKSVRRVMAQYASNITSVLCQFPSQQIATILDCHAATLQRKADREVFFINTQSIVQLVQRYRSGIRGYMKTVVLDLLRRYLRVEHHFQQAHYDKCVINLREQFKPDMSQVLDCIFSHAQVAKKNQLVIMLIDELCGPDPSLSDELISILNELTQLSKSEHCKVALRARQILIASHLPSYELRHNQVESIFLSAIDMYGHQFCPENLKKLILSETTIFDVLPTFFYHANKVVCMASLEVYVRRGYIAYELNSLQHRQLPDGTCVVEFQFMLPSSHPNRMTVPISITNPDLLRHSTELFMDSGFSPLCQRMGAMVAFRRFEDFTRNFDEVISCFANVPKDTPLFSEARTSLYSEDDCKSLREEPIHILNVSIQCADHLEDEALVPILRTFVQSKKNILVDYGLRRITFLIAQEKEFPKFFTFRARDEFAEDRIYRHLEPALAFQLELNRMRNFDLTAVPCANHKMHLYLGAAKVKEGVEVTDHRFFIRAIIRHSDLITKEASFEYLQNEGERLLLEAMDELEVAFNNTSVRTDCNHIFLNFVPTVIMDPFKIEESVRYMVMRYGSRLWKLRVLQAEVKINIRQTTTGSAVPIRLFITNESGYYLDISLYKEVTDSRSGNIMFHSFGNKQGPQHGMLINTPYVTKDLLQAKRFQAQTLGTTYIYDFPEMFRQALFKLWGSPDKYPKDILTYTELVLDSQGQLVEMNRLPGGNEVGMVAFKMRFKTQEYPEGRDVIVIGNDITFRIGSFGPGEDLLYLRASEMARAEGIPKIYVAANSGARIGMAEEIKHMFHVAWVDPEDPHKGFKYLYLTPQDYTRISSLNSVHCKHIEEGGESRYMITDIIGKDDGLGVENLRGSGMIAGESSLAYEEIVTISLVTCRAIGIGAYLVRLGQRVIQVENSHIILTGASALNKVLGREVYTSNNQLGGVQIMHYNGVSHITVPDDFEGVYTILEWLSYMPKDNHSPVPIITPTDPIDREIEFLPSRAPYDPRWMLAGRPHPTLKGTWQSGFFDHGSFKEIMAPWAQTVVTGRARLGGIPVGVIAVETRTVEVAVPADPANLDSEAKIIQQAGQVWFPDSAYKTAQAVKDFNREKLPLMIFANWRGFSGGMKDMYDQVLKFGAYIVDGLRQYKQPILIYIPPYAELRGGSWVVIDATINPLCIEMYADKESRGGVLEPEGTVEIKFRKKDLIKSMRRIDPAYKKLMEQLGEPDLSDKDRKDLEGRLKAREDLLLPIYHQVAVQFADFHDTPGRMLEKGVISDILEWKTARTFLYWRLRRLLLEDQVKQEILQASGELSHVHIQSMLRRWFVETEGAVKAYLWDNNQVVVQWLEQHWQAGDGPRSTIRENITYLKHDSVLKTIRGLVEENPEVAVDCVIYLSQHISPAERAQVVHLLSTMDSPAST

SMILES	IC50 [nM]
CC(=O)N[C@@H](C)c1ccc(C2CCN(c3ncc(-c4ccc5ncccc5c4)cn3)CC2)cc1 [Example 10.70]	230
CC(=O)N[C@@H](C)c1ccc(C2CCN(c3ncc(C4=CCCCC4)cn3)CC2)cc1 [Example 10.71]	150
CC(=O)N[C@@H](C)c1ccc(C2CCN(c3ncc(-c4cccn4C)cn3)CC2)cc1 [Example 10.72]	1200
CC(=O)N[C@@H](C)c1ccc(C2CCN(c3ncc(-c4ccc5nccnc5c4)cn3)CC2)cc1 [Example 10.73]	180
CC(=O)N[C@@H](C)c1ccc(C2CCN(c3ncc(-c4cnc(Br)n4C)cn3)CC2)cc1 [Example 10.74]	1200
CC(=O)N[C@@H](C)c1ccc(C2CCN(c3ncc(-c4ccc5sccc5c4)cn3)CC2)cc1 [Example 10.75]	50
CC(=O)N[C@@H](C)c1ccc(C2CCN(c3ncc(-c4ccc(Cl)c(C)c4)cn3)CC2)cc1 [Example 10.76]	110
CSc1ccc(-c2cnc(N3CCC(c4ccc([C@H](C)NC(C)=O)cc4)CC3)nc2)c(C(F)(F)F)c1 [Example 10.77]	1600
CC(=O)N[C@@H](C)c1ccc(C2CCN(c3ncc(-c4ccc(O)c(Cl)c4)cn3)CC2)cc1 [Example 10.78]	200
CC(=O)N[C@@H](C)c1ccc(C2CCN(c3ncc(-c4cncc(C#N)c4)cn3)CC2)cc1 [Example 10.79]	1100
CC(=O)N[C@@H](C)c1ccc(C2CCN(c3ncc(-c4cccc(C#N)c4)cn3)CC2)cc1 [Example 10.80]	140
CC(=O)N[C@@H](C)c1ccc(C2CCN(c3ncc(-c4ccc(N(C)C)nc4)cn3)CC2)cc1 [Example 10.81]	10400
CC(=O)N[C@@H](C)c1ccc(C2CCN(c3ncc(-c4ccc(C#N)nc4)cn3)CC2)cc1 [Example 10.82]	150
CC(=O)N[C@@H](C)c1ccc(C2CCN(c3ncc(-c4cnc(C#N)nc4)cn3)CC2)cc1 [Example 10.83]	1900
CC(=O)N[C@@H](C)c1ccc(C2CCN(c3ncc(C4=CCOCC4)cn3)CC2)cc1 [Example 10.84]	1300
CC(=O)N[C@@H](C)c1ccc(C2CCN(c3ncc(-c4ccc(C(F)(F)F)nc4)cn3)CC2)cc1 [Example 10.85]	2600
CC(=O)N[C@@H](C)c1ccc(C2CCN(c3ncc(-c4ccc5[nH]ncc5c4)cn3)CC2)cc1 [Example 10.86]	5900
CC(=O)N[C@@H](C)c1ccc(C2CCN(c3ncc(-c4ccc5c(c4)OCO5)cn3)CC2)cc1 [Example 10.87]	70
CC(=O)N[C@@H](C)c1ccc(C2CCN(c3ncc(-c4ccc5occc5c4)cn3)CC2)cc1 [Example 10.88]	30
CC(=O)N[C@@H](C)c1ccc(C2CCN(c3ncc(-c4ccc5c(c4)CCCO5)cn3)CC2)cc1 [Example 10.90]	350
CC(=O)N[C@@H](C)c1ccc(C2CCN(c3ncc(-c4coc5ccccc45)cn3)CC2)cc1 [Example 10.91]	170
CC(=O)N[C@@H](C)c1ccc(C2CCN(c3ncc(-c4cccc5c4OCC5)cn3)CC2)cc1 [Example 10.92]	370
CC(=O)N[C@@H](C)c1ccc(C2CCN(c3ncc(C4=CCC5(CC4)OCCO5)cn3)CC2)cc1 [Example 10.93]	4300
CC(=O)N[C@@H](C)c1ccc(C2CCN(c3ncc(-c4cccnc4C)cn3)CC2)cc1 [Example 10.94]	2300

SMILES	IC50 [nM]
CC(=O)N[C@@H](C)c1ccc(C2CCN(c3ncc(-c4cnccc4C)cn3)CC2)cc1 [Example 10.95]	2000
CC(=O)N[C@@H](C)c1ccc(C2CCN(c3ncc(-c4ccco4)cn3)CC2)cc1 [Example 10.96]	600
CC(=O)N[C@@H](C)c1ccc(C2CCN(c3ncc(-c4ccccc4CC#N)cn3)CC2)cc1 [Example 10.97]	8200
C[C@H](NC(=O)C1CC1)c1ccc(C2CCN(c3ncc(-c4ccc5c(c4)CCO5)cn3)CC2)cc1 [Example 10.98]	900
C[C@H](NC(=O)N(C)C)c1ccc(C2CCN(c3ncc(-c4ccc5c(c4)CCO5)cn3)CC2)cc1 [Example 10.99]	380
Cc1cccc(-c2cnc(N3CCC(c4ccc([C@H](C)NC(=O)C5CC5)cc4)CC3)nc2)c1 [Example 10.100]	90
C[C@H](NC(=O)C1CC1)c1ccc(C2CCN(c3ncc(-c4ccc(F)cc4)cn3)CC2)cc1 [Example 10.101]	80
C[C@H](NC(=O)C1CC1)c1ccc(C2CCN(c3ncc(-c4ccc(C#N)cc4)cn3)CC2)cc1 [Example 10.102]	240
C[C@H](NC(=O)C1CC1)c1ccc(C2CCN(c3ncc(-c4ccccc4F)cn3)CC2)cc1 [Example 10.103]	560
C[C@H](NC(=O)C1CC1)c1ccc(C2CCN(c3ncc(-c4ccoc4)cn3)CC2)cc1 [Example 10.104]	170
C[C@H](NC(=O)C1CC1)c1ccc(C2CCN(c3ncc(-c4ccccc4)cn3)CC2)cc1 [Example 10.105]	100
Cc1cccc(-c2cnc(N3CCC(c4ccc([C@H](C)NC(=O)N(C)C)cc4)CC3)nc2)c1 [Example 10.107]	110
C[C@H](NC(=O)N(C)C)c1ccc(C2CCN(c3ncc(-c4ccc(F)cc4)cn3)CC2)cc1 [Example 10.108]	90
C[C@H](NC(=O)N(C)C)c1ccc(C2CCN(c3ncc(-c4ccc(C#N)cc4)cn3)CC2)cc1 [Example 10.109]	90
C[C@H](NC(=O)N(C)C)c1ccc(C2CCN(c3ncc(-c4ccccc4F)cn3)CC2)cc1 [Example 10.110]	430
C[C@H](NC(=O)N(C)C)c1ccc(C2CCN(c3ncc(-c4ccccc4)cn3)CC2)cc1 [Example 10.111]	170
Cc1ccc(-c2cnc(N3CCC(c4ccc([C@H](C)NC(=O)N(C)C)cc4)CC3)nc2)cc1 [Example 10.112]	120
C[C@H](NC(=O)N(C)C)c1ccc(C2CCN(c3ncc(-c4ccoc4)cn3)CC2)cc1 [Example 10.113]	530
CC(=O)N[C@@H](C)c1ccc(C2CCN(c3ncc(-c4ccc5cc[nH]c5c4)cn3)CC2)cc1 [Example 10.114]	410
COc1ccc2[nH]c(-c3cnc(N4CCC(c5ccc([C@H](C)NC(C)=O)cc5)CC4)nc3)cc2c1 [Example 10.115]	410
CC(=O)N[C@@H](C)c1ccc(C2CCN(c3ncc(-c4cc5ccc(C)cc5[nH]4)cn3)CC2)cc1 [Example 10.116]	460
CC(=O)N[C@@H](C)c1ccc(C2CCN(c3ncc(-c4cc5cc(C#N)ccc5[nH]4)cn3)CC2)cc1 [Example 10.117]	680
CC(=O)N[C@@H](C)c1ccc(C2CCN(c3ncc(-c4cccc5cc[nH]c45)cn3)CC2)cc1 [Example 10.118]	150
CC(=O)N[C@@H](C)c1ccc(C2CCN(c3ncc(-c4cc5ccccc5[nH]4)cn3)CC2)cc1 [Example 10.119]	310

SMILES	IC50 [nM]
CC(=O)N[C@@H](C)c1ccc(C2CCN(c3ncc(-c4cccc5[nH]ccc45)cn3)CC2)cc1 [Example 10.120]	740
CC(=O)N[C@@H](C)c1ccc(C2CCN(c3ncc(-c4ccc(C)cn4)cn3)CC2)cc1 [Example 10.121]	110
CC(=O)N[C@@H](C)c1ccc(C2CCN(c3ncc(-c4cc(C)ccn4)cn3)CC2)cc1 [Example 10.122]	150
CC(=O)N[C@@H](C)c1ccc(C2CCN(c3ncc(-c4cccc(CC#N)c4)cn3)CC2)cc1 [Example 10.123]	420
CCOc1ccc(-c2cnc(N3CCC(c4ccc([C@H](C)NC(C)=O)cc4)CC3)nc2)cc1C [Example 10.125]	640
CC(=O)N[C@@H](C)c1ccc(C2CCN(c3ncc(-c4ccc(OC(C)C)c(C)c4)cn3)CC2)cc1 [Example 10.126]	1300
COc1cc(C)c(-c2cnc(N3CCC(c4ccc([C@H](C)NC(C)=O)cc4)CC3)nc2)cc1C [Example 10.127]	1600
COc1cc(-c2cnc(N3CCC(c4ccc([C@H](C)NC(C)=O)cc4)CC3)nc2)ccc1C#N [Example 10.128]	140
CC(=O)N[C@@H](C)c1ccc(C2CCN(c3ncc(-c4ccc(C)cc4F)cn3)CC2)cc1 [Example 10.129]	340
CC(=O)N[C@@H](C)c1ccc(C2CCN(c3ncc(-c4cccs4)cn3)CC2)cc1 [Example 10.130]	40
CC(=O)N[C@@H](C)c1ccc(C2CCN(c3ncc(CC(C)C)cn3)CC2)cc1 [Example 10.201]	340
CC(=O)N[C@@H](C)c1ccc(C2CCN(c3ncc(C4CC4)cn3)CC2)cc1 [Example 10.202]	570
CC(=O)N[C@@H](C)c1ccc(C2CCN(c3ncc(-c4ccccn4)cn3)CC2)cc1 [Example 10.203]	160
COc1cc(C)c(-c2cnc(N3CCC(c4ccc([C@H](C)NC(C)=O)cc4)CC3)nc2)c(C)c1 [Example 10.204]	350
CC(=O)N[C@@H](C)c1ccc(C2CCN(c3ccc(-c4ccc5[nH]ccc5c4)cn3)CC2)cc1 [Example 10.301]	320
CC(=O)N[C@@H](C)c1ccc(C2CCN(c3ncc(-c4ccc5[nH]ccc5c4)cc3F)CC2)cc1 [Example 10.302]	430
CC(=O)N[C@@H](C)c1ccc(C2CCN(c3nccc(C4CC4)c3C)CC2)cc1 [Example 10.303]	160
CC(=O)N[C@@H](C)c1ccc(C2CCN(c3ccc(C4CC4)cn3)CC2)cc1 [Example 10.304]	750
CC(=O)N[C@@H](C)c1ccc(C2CCN(c3ncc(C4CC4)cc3F)CC2)cc1 [Example 10.305]	460
CCOc1cccc(-c2ccc(N3CCC(c4ccc([C@H](C)NC(C)=O)cc4)CC3)nc2)c1 [Example 10.306]	310
CCOc1cccc(-c2cnc(N3CCC(c4ccc([C@H](C)NC(C)=O)cc4)CC3)c(F)c2)c1 [Example 10.307]	310
CC(=O)N[C@@H](C)c1ccc(C2CCN(c3ccc(-c4ccc(C#N)s4)cn3)CC2)cc1 [Example 10.308]	80
